biological target: T1, fatty acyl CoA: cholesterol acyl transferase (ACAT) (Rattus norvegicus, UniProt O70536); test: Inhibition of fatty acyl CoA:cholesterol acyl transferase (ACAT), rat adrenal enzyme; type: biochemical; conditions: rat adrenal ACAT; final concentration 5.2 μg/ml; read-out: % Inhibition
T1 construct: The supernatant, containing the microsomal fraction, served as the source of the cholesterol-esterifying enzyme; from tissue; host or cells: rat adrenals, supernatant of 1,000 x g centrifugation containing the microsomal fraction
T1 sequence (O70536 1-545): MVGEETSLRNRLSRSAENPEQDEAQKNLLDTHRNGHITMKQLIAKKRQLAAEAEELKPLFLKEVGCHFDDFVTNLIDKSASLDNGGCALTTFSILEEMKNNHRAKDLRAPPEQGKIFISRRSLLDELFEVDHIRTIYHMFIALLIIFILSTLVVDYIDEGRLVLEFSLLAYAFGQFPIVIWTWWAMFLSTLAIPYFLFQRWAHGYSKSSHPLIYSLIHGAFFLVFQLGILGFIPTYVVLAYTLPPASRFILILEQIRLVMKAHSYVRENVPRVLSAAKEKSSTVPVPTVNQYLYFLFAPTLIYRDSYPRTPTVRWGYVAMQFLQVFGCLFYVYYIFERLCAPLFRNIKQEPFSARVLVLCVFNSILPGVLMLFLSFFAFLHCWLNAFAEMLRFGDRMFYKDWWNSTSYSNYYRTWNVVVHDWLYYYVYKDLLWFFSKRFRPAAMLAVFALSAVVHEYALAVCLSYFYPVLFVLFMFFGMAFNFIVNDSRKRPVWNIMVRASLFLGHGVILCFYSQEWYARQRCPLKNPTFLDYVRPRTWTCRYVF
Summary of the method: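 Read-out was scintillation counting of [14C]cholesteryl ester, isolated by TLC, after 10 min at 37° C with [14C]oleoyl CoA. Beforehand, compound (final 5.2 μg/ml in single-concentration tests) was preincubated 10 min at 37° C with BSA and rat adrenal microsomal supernatant in pH 7.4 phosphate. Results given as percent inhibition versus control or IC50 over several concentrations.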

inhibition at 5.2 µg/mL [%] | SMILES
77 | O=C(Nc1c(Cl)cc(Cl)cc1Cl)N(Cc1ccc(Cl)cc1)Cc1cccc2ccccc12 [1-(4-Chlorobenzyl)-1-(1-naphthylmethyl)-3-(2,4,6-trichlorophenyl)urea]
96.1 | CCCCCCCN(Cc1ccco1)C(=O)Nc1c(Cl)cc(Cl)cc1Cl [1-(2-Furanylmethyl)-1-heptyl-3-(2,4,6-trichlorophenyl)urea]
80 | O=C(Nc1cccc(C(F)(F)F)c1)N(Cc1ccc(Cl)cc1)Cc1cccc2ccccc12 [1-(4-Chlorobenzyl)-1-(1-naphthylmethyl)-3-(3-trifluoromethylphenyl)urea]
36.3 | Cc1ccc(NC(=O)N(Cc2ccc(-c3ccccc3)cc2)Cc2ccc(Cl)c(Cl)c2)c(C)c1 [1-(4-Phenylbenzyl)-1-(3,4-dichlorobenzyl)-3-(2,4-dimethylphenyl)urea]
93.8 | CCCCCCCN(CCc1ccccc1)C(=O)Nc1ccc(Cl)cc1C [1-(n-Heptyl)-1-(2-phenylethyl)-3-(2-methyl-4-chlorophenyl)urea]
41.5 | COc1ccccc1CN(Cc1ccccc1F)C(=O)Nc1ccc(C)cc1C [1-(2-Fluorobenzyl)-1-(2-methoxybenzyl)-3-(2,4-dimethylphenyl)urea]
95 | O=C(Nc1c(Cl)cc(Cl)cc1Cl)N(Cc1ccccc1)C(Cc1ccccc1)c1ccc(OCc2ccccc2)cc1 (stereo not drawn) [1-Benzyl-1-[2-phenyl-1-(4-benzyloxyphenyl)ethyl]-3-(2,4,6-trichlorophenyl)urea]
80 | CCCCCOc1ccc(CN(Cc2ccc(CCCCC)cc2)C(=O)Nc2cc(Cl)c(Cl)cc2Cl)cc1 [1-(4-n-Pentylbenzyl)-1-(4-n-pentyloxybenzyl)-3-(2,4,5-trichlorophenyl)urea]
91.7 | CCCCOc1ccc(CN(Cc2ccccc2)C(=O)Nc2ccc(C)cc2C)cc1 [1-Benzyl-1-(4-butyloxybenzyl)-3-(2,4-dimethylphenyl)urea]
67.6 | Cc1ccc(CCN(Cc2cccc(Cl)c2)C(=O)Nc2ccc(C)cc2C)cc1 [1-[2-(4-Methylphenyl)ethyl]-1-(3-chlorobenzyl)-3-(2,4-dimethylphenyl)urea]
84 | O=C(Nc1ccc(F)cc1F)N(Cc1ccc(Cl)cc1)Cc1cccc2ccccc12 [1-(4-Chlorobenzyl)-1-(1-naphthylmethyl)-3-(2,4-difluorophenyl)urea]

same assay, conditions: rat adrenal ACAT; several concentrations

IC50 [nM] | SMILES
1080 | CCCCCCCN(Cc1ccc(CCCC(=O)OCC)cc1)C(=O)Nc1c(C)cc(Cl)cc1C [1-(n-Heptyl)-1-[4-(3-carboethoxypropyl)benzyl]-3-(4-chloro-2,6-dimethylphenyl)urea]
2400 | CCCCCCCN(Cc1ccc(CCC(C)C)cc1)C(=O)Nc1ccc(Cl)cc1C [1-(n-Heptyl)-1-[4-(4-isopentyl)benzyl]-3-(4-chloro-2-methylphenyl)urea]
3370 | CC(C)CCN(Cc1ccc(C(C)C)cc1)C(=O)Nc1ccc(F)cc1F [1-(Isopentyl)-1-[4-(isopropyl)benzyl]-3-(2,4-difluorophenyl)urea]

tested on: cholesterol absorption; test: Inhibition of cholesterol absorption in rats fed 1% cholesterol:0.5% cholic acid diet; type: in vivo, male Sprague-Dawley rats; conditions: po, 336 h; rat; dose .01% of the diet, 2 weeks; read-out: LS (liver sterol), percentage of control values
Summary of the method: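 Compound was mixed into the diet (0.001-0.03%) of male Sprague-Dawley rats, 150-170 g, on a 1% cholesterol/0.5% cholic acid regimen for 2 weeks. At sacrifice, serum cholesterol (enzymatic) and liver neutral-sterol cholesterol were measured; values given as percent of compound-free control rats.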

SMILES | response vs control in vivo at 0.01 % [%]
CCCCCCCN(Cc1ccc(CCCC(=O)OCC)cc1)C(=O)Nc1c(C)cc(Cl)cc1C [1-(n-Heptyl)-1-[4-(3-carboethoxypropyl)benzyl]-3-(4-chloro-2,6-dimethylphenyl)urea] | 65
CCCCCCCN(Cc1ccc(CCC(C)C)cc1)C(=O)Nc1ccc(Cl)cc1C [1-(n-Heptyl)-1-[4-(4-isopentyl)benzyl]-3-(4-chloro-2-methylphenyl)urea] | 17

same assay, conditions: po, 336 h; rat; dose .01% of the diet, 2 weeks; read-out: SS (serum sterol), percentage of control values

SMILES | response vs control in vivo at 0.01 % [%]
CCCCCCCN(Cc1ccc(CCCC(=O)OCC)cc1)C(=O)Nc1c(C)cc(Cl)cc1C [1-(n-Heptyl)-1-[4-(3-carboethoxypropyl)benzyl]-3-(4-chloro-2,6-dimethylphenyl)urea] | 55
CCCCCCCN(Cc1ccc(CCC(C)C)cc1)C(=O)Nc1ccc(Cl)cc1C [1-(n-Heptyl)-1-[4-(4-isopentyl)benzyl]-3-(4-chloro-2-methylphenyl)urea] | 20

same assay, conditions: po, 336 h; rat; dose .03% of the diet, 2 weeks; read-out: LS (liver sterol), percentage of control values

SMILES | response vs control in vivo at 0.03 % [%]
O=C(Nc1c(Cl)cc(Cl)cc1Cl)N(Cc1ccc(Cl)cc1)Cc1cccc2ccccc12 [1-(4-Chlorobenzyl)-1-(1-naphthylmethyl)-3-(2,4,6-trichlorophenyl)urea] | 12
CCCCCCCN(Cc1ccco1)C(=O)Nc1c(Cl)cc(Cl)cc1Cl [1-(2-Furanylmethyl)-1-heptyl-3-(2,4,6-trichlorophenyl)urea] | 34
O=C(Nc1cccc(C(F)(F)F)c1)N(Cc1ccc(Cl)cc1)Cc1cccc2ccccc12 [1-(4-Chlorobenzyl)-1-(1-naphthylmethyl)-3-(3-trifluoromethylphenyl)urea] | 92
Cc1ccc(NC(=O)N(Cc2ccc(-c3ccccc3)cc2)Cc2ccc(Cl)c(Cl)c2)c(C)c1 [1-(4-Phenylbenzyl)-1-(3,4-dichlorobenzyl)-3-(2,4-dimethylphenyl)urea] | 17
CC(C)CCN(Cc1ccc(C(C)C)cc1)C(=O)Nc1ccc(F)cc1F [1-(Isopentyl)-1-[4-(isopropyl)benzyl]-3-(2,4-difluorophenyl)urea] | 37
CCCCCCCN(CCc1ccccc1)C(=O)Nc1ccc(Cl)cc1C [1-(n-Heptyl)-1-(2-phenylethyl)-3-(2-methyl-4-chlorophenyl)urea] | 49
COc1ccccc1CN(Cc1ccccc1F)C(=O)Nc1ccc(C)cc1C [1-(2-Fluorobenzyl)-1-(2-methoxybenzyl)-3-(2,4-dimethylphenyl)urea] | 20
O=C(Nc1c(Cl)cc(Cl)cc1Cl)N(Cc1ccccc1)C(Cc1ccccc1)c1ccc(OCc2ccccc2)cc1 (stereo not drawn) [1-Benzyl-1-[2-phenyl-1-(4-benzyloxyphenyl)ethyl]-3-(2,4,6-trichlorophenyl)urea] | 64
CCCCCOc1ccc(CN(Cc2ccc(CCCCC)cc2)C(=O)Nc2cc(Cl)c(Cl)cc2Cl)cc1 [1-(4-n-Pentylbenzyl)-1-(4-n-pentyloxybenzyl)-3-(2,4,5-trichlorophenyl)urea] | 92
CCCCOc1ccc(CN(Cc2ccccc2)C(=O)Nc2ccc(C)cc2C)cc1 [1-Benzyl-1-(4-butyloxybenzyl)-3-(2,4-dimethylphenyl)urea] | 15
Cc1ccc(CCN(Cc2cccc(Cl)c2)C(=O)Nc2ccc(C)cc2C)cc1 [1-[2-(4-Methylphenyl)ethyl]-1-(3-chlorobenzyl)-3-(2,4-dimethylphenyl)urea] | 20
O=C(Nc1ccc(F)cc1F)N(Cc1ccc(Cl)cc1)Cc1cccc2ccccc12 [1-(4-Chlorobenzyl)-1-(1-naphthylmethyl)-3-(2,4-difluorophenyl)urea] | 30

same assay, conditions: po, 336 h; rat; dose .03% of the diet, 2 weeks; read-out: SS (serum sterol), percentage of control values

SMILES | response vs control in vivo at 0.03 % [%]
O=C(Nc1c(Cl)cc(Cl)cc1Cl)N(Cc1ccc(Cl)cc1)Cc1cccc2ccccc12 [1-(4-Chlorobenzyl)-1-(1-naphthylmethyl)-3-(2,4,6-trichlorophenyl)urea] | 38
CCCCCCCN(Cc1ccco1)C(=O)Nc1c(Cl)cc(Cl)cc1Cl [1-(2-Furanylmethyl)-1-heptyl-3-(2,4,6-trichlorophenyl)urea] | 37
O=C(Nc1cccc(C(F)(F)F)c1)N(Cc1ccc(Cl)cc1)Cc1cccc2ccccc12 [1-(4-Chlorobenzyl)-1-(1-naphthylmethyl)-3-(3-trifluoromethylphenyl)urea] | 87
Cc1ccc(NC(=O)N(Cc2ccc(-c3ccccc3)cc2)Cc2ccc(Cl)c(Cl)c2)c(C)c1 [1-(4-Phenylbenzyl)-1-(3,4-dichlorobenzyl)-3-(2,4-dimethylphenyl)urea] | 49
CC(C)CCN(Cc1ccc(C(C)C)cc1)C(=O)Nc1ccc(F)cc1F [1-(Isopentyl)-1-[4-(isopropyl)benzyl]-3-(2,4-difluorophenyl)urea] | 49
CCCCCCCN(CCc1ccccc1)C(=O)Nc1ccc(Cl)cc1C [1-(n-Heptyl)-1-(2-phenylethyl)-3-(2-methyl-4-chlorophenyl)urea] | 66
COc1ccccc1CN(Cc1ccccc1F)C(=O)Nc1ccc(C)cc1C [1-(2-Fluorobenzyl)-1-(2-methoxybenzyl)-3-(2,4-dimethylphenyl)urea] | 45
O=C(Nc1c(Cl)cc(Cl)cc1Cl)N(Cc1ccccc1)C(Cc1ccccc1)c1ccc(OCc2ccccc2)cc1 (stereo not drawn) [1-Benzyl-1-[2-phenyl-1-(4-benzyloxyphenyl)ethyl]-3-(2,4,6-trichlorophenyl)urea] | 95
CCCCCOc1ccc(CN(Cc2ccc(CCCCC)cc2)C(=O)Nc2cc(Cl)c(Cl)cc2Cl)cc1 [1-(4-n-Pentylbenzyl)-1-(4-n-pentyloxybenzyl)-3-(2,4,5-trichlorophenyl)urea] | 85
CCCCOc1ccc(CN(Cc2ccccc2)C(=O)Nc2ccc(C)cc2C)cc1 [1-Benzyl-1-(4-butyloxybenzyl)-3-(2,4-dimethylphenyl)urea] | 48
Cc1ccc(CCN(Cc2cccc(Cl)c2)C(=O)Nc2ccc(C)cc2C)cc1 [1-[2-(4-Methylphenyl)ethyl]-1-(3-chlorobenzyl)-3-(2,4-dimethylphenyl)urea] | 50
O=C(Nc1ccc(F)cc1F)N(Cc1ccc(Cl)cc1)Cc1cccc2ccccc12 [1-(4-Chlorobenzyl)-1-(1-naphthylmethyl)-3-(2,4-difluorophenyl)urea] | 45

From patent US4623662A, “Antiatherosclerotic ureas and thioureas” (American Cyanamid Company, priority 1985, dated 1986)
